Data reported in PubChem BioAssay (NCI).
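1) Cells in 96-well plates. 2) Compound, 48 h, 5 concentrations. 3) Linear interpolation between surrounding doses. 4) Unreached endpoint = highest concentration. TGI marks complete inhibition of growth.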

Legend:
Assay in all cases: NCI anticancer screen, dose series, 48 h
LXFL 529 NSCLC = tested on: LXFL 529 NSCLC
SK-OV-3 ovarian = tested on: SK-OV-3 ovarian
HOP-18 NSCLC = tested on: HOP-18 NSCLC
DMS 273 small cell lung = tested on: DMS 273 small cell lung
COLO 205 colon = tested on: COLO 205 colon
SR leukemia = tested on: SR leukemia
HCT-116 colon = tested on: HCT-116 colon
A549 NSCLC = tested on: A549 NSCLC
CCRF-CEM leukemia = tested on: CCRF-CEM leukemia
SNB-19 CNS = tested on: SNB-19 CNS
TK-10 renal = tested on: TK-10 renal
SNB-78 CNS = tested on: SNB-78 CNS
SN12C renal = tested on: SN12C renal
NCI-H460 lung = tested on: NCI-H460 lung
A498 renal = tested on: A498 renal
DLD-1 colon = tested on: DLD-1 colon
OVCAR-3 ovarian = tested on: OVCAR-3 ovarian
HCC-2998 colon = tested on: HCC-2998 colon
SK-MEL-28 melanoma = tested on: SK-MEL-28 melanoma
SK-MEL-2 melanoma = tested on: SK-MEL-2 melanoma
UO-31 renal = tested on: UO-31 renal
HL-60(TB) leukemia = tested on: HL-60(TB) leukemia
OVCAR-4 ovarian = tested on: OVCAR-4 ovarian
SF-539 CNS = tested on: SF-539 CNS
NCI-H522 lung = tested on: NCI-H522 lung
SF-268 CNS = tested on: SF-268 CNS
786-0 renal = tested on: 786-0 renal
UACC-62 melanoma = tested on: UACC-62 melanoma
OVCAR-8 ovarian = tested on: OVCAR-8 ovarian
RXF 393 renal = tested on: RXF 393 renal
KM12 colon = tested on: KM12 colon
IGROV1 ovarian = tested on: IGROV1 ovarian
K-562 leukemia = tested on: K-562 leukemia
HOP-62 NSCLC = tested on: HOP-62 NSCLC
M19-MEL melanoma = tested on: M19-MEL melanoma
KM20L2 colon = tested on: KM20L2 colon
U251 CNS = tested on: U251 CNS
M14 melanoma = tested on: M14 melanoma
NCI-H226 lung = tested on: NCI-H226 lung
CAKI-1 renal = tested on: CAKI-1 renal
UACC-257 melanoma = tested on: UACC-257 melanoma
DMS 114 small cell lung = tested on: DMS 114 small cell lung
SW-620 colon = tested on: SW-620 colon
SNB-75 CNS = tested on: SNB-75 CNS
HCT-15 colon = tested on: HCT-15 colon
RPMI-8226 leukemia = tested on: RPMI-8226 leukemia
MOLT-4 leukemia = tested on: MOLT-4 leukemia
SK-MEL-5 melanoma = tested on: SK-MEL-5 melanoma
MALME-3M melanoma = tested on: MALME-3M melanoma
ACHN renal = tested on: ACHN renal
MDA-MB-435 = tested on: MDA-MB-435
MDA-N = tested on: MDA-N
EKVX NSCLC = tested on: EKVX NSCLC
NCI/ADR-RES ovarian = tested on: NCI/ADR-RES ovarian
T-47D breast = tested on: T-47D breast
SF-295 CNS = tested on: SF-295 CNS
DU-145 prostate = tested on: DU-145 prostate
MCF7 breast = tested on: MCF7 breast
HOP-92 NSCLC = tested on: HOP-92 NSCLC
LOX IMVI melanoma = tested on: LOX IMVI melanoma
BT-549 breast = tested on: BT-549 breast
NCI-H23 lung = tested on: NCI-H23 lung
HT29 colon = tested on: HT29 colon
OVCAR-5 ovarian = tested on: OVCAR-5 ovarian
PC-3 prostate = tested on: PC-3 prostate
HS 578T breast = tested on: HS 578T breast
MDA-MB-231 breast = tested on: MDA-MB-231 breast

Measured: TGI

CCOC(=O)/C=C1\CCCC12OCCO2
7.38 µM: NCI-H522 lung
not listed: MDA-MB-435 | MDA-N | EKVX NSCLC | NCI/ADR-RES ovarian | T-47D breast | SF-295 CNS | DU-145 prostate | MCF7 breast | HOP-92 NSCLC | LOX IMVI melanoma | BT-549 breast | NCI-H23 lung | HT29 colon | OVCAR-5 ovarian | PC-3 prostate | HS 578T breast | MDA-MB-231 breast
> 100 µM: all other assays above

Nc1ccc(C(=O)CC(N)C(=O)O)cc1O (stereo not given)
not listed: LXFL 529 NSCLC | HOP-18 NSCLC | DMS 273 small cell lung | SNB-78 CNS | DLD-1 colon | M19-MEL melanoma | KM20L2 colon | DMS 114 small cell lung
> 100 µM: all other assays above

CC(=O)OCC(OC(C)=O)C(OC(C)=O)C(OC(C)=O)C(=O)CNn1c(-c2ccccc2Cl)nc2ccccc2c1=O (stereo not given)
not listed: HOP-18 NSCLC | TK-10 renal | DLD-1 colon | HCC-2998 colon | IGROV1 ovarian | MDA-MB-435 | MDA-N | NCI/ADR-RES ovarian | T-47D breast | DU-145 prostate | MCF7 breast | HOP-92 NSCLC | BT-549 breast | PC-3 prostate | HS 578T breast | MDA-MB-231 breast
> 100 µM: all other assays above
